Consider 11 molecules from patent publication EP0323590A2, “Carbazoyl derivatives” (ONO PHARMACEUTICAL CO., LTD., priority 1987, dated 1989).

Where a name gives a salt, the structure may show the parent alone.

The subject of this test is Maillard reaction. Nature of the test: Inhibitory effect on Maillard reaction in vitro (BSA + glucose incubation, fluorescence). In kind it is biochemical. The note with it: 6mM test compound, 100 mg/ml bovine serum albumin (BSA), 200 mM glucose, 0.5 M phosphatic buffer pH 7.38, a week at 37°C; fluorescence excitation 360nm, emission 450 nm. Here is the method: In order to evaluate the inhibitory effect on Maillard reaction in vitro, of the compounds in the present invention, the measurement was carried out under conditions described below.
After incubation, the incubated medium was diluted 100 times with the same phosphatic buffer solution, and the fluorescence spectrum was measured at the excitation maximum of 360nm and the emission maximum of 450 nm.
Inhibition percentage of the test compounds was calculated by the following equation: [formula] ΔI₁ : fluorescence of test compounds ΔI₂ : fluorescence of (test compounds + glucose), ΔI₃ : fluorescence of (test compounds + BSA), ΔI₄ : fluorescence of (test compounds + BSA + glucose), ΔI : fluorescence of (BSA + glucose)
On to `NNC(=O)NC1CCCCC1` [1(a), 4-cyclohexyl semicarbozide], for which the “Inhibitory effect (%) (6mM)” value was determined as 100%.

As to `Cl.NNC(=O)Nc1ccc(Cl)cc1` [1(e), 4-(4-chlorophenyl) semicarbazide hydrochloride], the “Inhibitory effect (%) (6mM)” value came out at 65%.

Regarding `Cl.NNC(=O)NCc1ccccc1` [1(f), 4-benzylsemicarbazide hydrochloride], the “Inhibitory effect (%) (6mM)” value is on record as 90%.

For the molecule `Cl.Cl.NNC(=O)NCCCCCCNC(=O)NN` [1(i), 4-[6-(3-aminoureido)hexyl]semicarbazide dihydrochloride], the “Inhibitory effect (%) (6mM)” value is given as 100%.

As for `NNC(=O)Nc1cccc2ccccc12` [1(j), 4-(1-naphthyl) semicorbazide hydrochloride], the “Inhibitory effect (%) (6mM)” value was determined as 100%.

With `CN(N)C(=O)Nc1ccccc1.Cl` [1(q), 2-methyl-4-phenylsemicarbazide hydrochloride], the “Inhibitory effect (%) (6mM)” value is 74%.

Regarding `NNC(=O)CCc1ccccc1` [2(f), 3-phenylpropionohydrazide], the “Inhibitory effect (%) (6mM)” value is recorded as 100%.

On to `NNC(=O)C1CCCC1` [2(i), cyclopentancarbonylhydrozine], for which the “Inhibitory effect (%) (6mM)” value is recorded as 37%.

Turning to `NNC(=O)c1ccccc1N` [Example 2(a), 2-aminobenzohydrazide], the “Inhibitory effect (%) (6mM)” value stood at 100%.

For `NC(N)=O` [Urea, reference compound], the “Inhibitory effect (%) (6mM)” value is given as 28%.

In the case of `CC(=O)NN` [acetohydrazide], the “Inhibitory effect (%) (6mM)” value worked out at 35%.
